Drawing on ChEMBL document CHEMBL5316298, “Discovery of Amphiphilic Xanthohumol Derivatives as Membrane-Targeting Antimicrobials against Methicillin-Resistant Staphylococcus aureus” (J Med Chem, 2023), this text covers MIC and HC50 for eight molecules.

Data set [1] relates to Staphylococcus aureus. In words: Antibacterial activity against methicillin-resistant Staphylococcus aureus clinical isolate 8 incubated for 16 to 18 hrs by CLSI-based microbroth dilution method. Format: functional. To be noted: time 16-18 hrs. (Dilution methods test growth across graded concentrations, often in twofold steps.)
Data set [2] deals with Staphylococcus aureus. In words: Antibacterial activity against methicillin-resistant Staphylococcus aureus clinical isolate 7 incubated for 16 to 18 hrs by CLSI-based microbroth dilution method. The format is functional. To be noted: time 16-18 hrs.
The test system of data set [3] is Staphylococcus aureus. In words: Antibacterial activity against methicillin-resistant Staphylococcus aureus clinical isolate 5 incubated for 16 to 18 hrs by CLSI-based microbroth dilution method. Format: functional. To be noted: time 16-18 hrs.
For data set [4], the system named is Staphylococcus aureus. In words: Antibacterial activity against methicillin-resistant Staphylococcus aureus clinical isolate 10 incubated for 16 to 18 hrs by CLSI-based microbroth dilution method. Format: functional. The note with it: time 16-18 hrs.
The test system of data set [5] is Staphylococcus aureus. In words: Antibacterial activity against methicillin-resistant Staphylococcus aureus clinical isolate 2 incubated for 16 to 18 hrs by CLSI-based microbroth dilution method. The format is functional. The note with it: time 16-18 hrs.
Data set [6] relates to Staphylococcus aureus. In words: Antibacterial activity against methicillin-resistant Staphylococcus aureus clinical isolate 9 incubated for 16 to 18 hrs by CLSI-based microbroth dilution method. Format: functional. The note with it: time 16-18 hrs.
The test system of data set [7] is Staphylococcus aureus. In words: Antibacterial activity against methicillin-resistant Staphylococcus aureus clinical isolate 3 incubated for 16 to 18 hrs by CLSI-based microbroth dilution method. The note with it: time 16-18 hrs. The format is functional.
In data set [8] the test system is Staphylococcus aureus. In words: Antibacterial activity against methicillin-resistant Staphylococcus aureus clinical isolate 4 incubated for 16 to 18 hrs by CLSI-based microbroth dilution method. Format: functional. To be noted: time 16-18 hrs.
For data set [9], the system named is Staphylococcus aureus. In words: Antibacterial activity against methicillin-resistant Staphylococcus aureus clinical isolate 6 incubated for 16 to 18 hrs by CLSI-based microbroth dilution method. The format is functional. The note with it: time 16-18 hrs.
Data set [10] in a line: Hemolytic activity in sheep erythrocytes incubated for 1 hr by absorbance based analysis. Format: toxicity, cell-based, Ovis aries, Erythrocyte.
Data set [11] deals with Staphylococcus aureus. In words: Antibacterial activity against Staphylococcus aureus ATCC 29213 incubated for 16 to 18 hrs by CLSI-based microbroth dilution method. The format is functional. The note with it: time 16-18 hrs.
Data set [12] has as its system Staphylococcus aureus. In words: Antibacterial activity against methicillin-resistant Staphylococcus aureus clinical isolate 1 incubated for 16 to 18 hrs by CLSI-based microbroth dilution method. To be noted: time 16-18 hrs. The format is functional.

For `CCCCNC(=O)C[N+](C)(C)CCCCCOc1ccc(/C=C/C(=O)c2c(OC)cc3c(c2O)C=CC(C)(C)O3)cc1.[Br-]`, the MIC (commonly the lowest concentration that inhibits growth of the organism) came to 2 µg/mL in data set [1]; 2 µg/mL in data set [2]; 1 µg/mL in data set [3]; 2 µg/mL in [4]; 2 µg/mL in data set [5]; 4 µg/mL in data set [6]. The MIC in data set [7] is 2 µg/mL; in data set [8], 2 µg/mL; in [9], 1 µg/mL; in [11] it was 2 µg/mL; in [12], 2 µg/mL. Besides, the HC50 (in general, the concentration that lyses half of the red blood cells) at 1 h in data set [10] was 826 µg/mL.

Regarding `COc1cc2c(c(O)c1C(=O)/C=C/c1ccc(OCCCCC[N+](C)(C)CC(=O)N3CCSCC3)cc1)C=CC(C)(C)O2.[Br-]`, the MIC in [1] was 4 µg/mL; in [2] it was 4 µg/mL; in data set [3], 4 µg/mL; in [4], 1 µg/mL; in data set [5] it was 4 µg/mL; in data set [6], 1 µg/mL. In addition, the MIC in data set [7] was 4 µg/mL; in data set [8], 4 µg/mL; in [9], 2 µg/mL; in [11], 4 µg/mL; in [12] it was 8 µg/mL. Besides, the HC50 at 1 h in data set [10] came out at 210 µg/mL.

Turning to `CCCCN(CCCC)C(=O)C[N+](C)(C)CCCCOc1ccc(/C=C/C(=O)c2c(OC)cc3c(c2O)C=CC(C)(C)O3)cc1.[Br-]`, the MIC was determined as 4 µg/mL in [1]; 4 µg/mL in data set [2]; 2 µg/mL in data set [3]; 2 µg/mL in data set [4]; 2 µg/mL in data set [5]; 1 µg/mL in [6]. The MIC in data set [7] came to 1 µg/mL; in data set [8], 2 µg/mL; in data set [9], 1 µg/mL; in data set [11], 2 µg/mL; in data set [12], 1 µg/mL. Also, in data set [10], the HC50 at 1 h stood at 466 µg/mL.

With `COc1cc2c(c(O)c1C(=O)/C=C/c1ccc(OCCC[N+](C)(C)CC(=O)N(CC(C)C)CC(C)C)cc1)C=CC(C)(C)O2.[Br-]`, the MIC in data set [1] was determined as 2 µg/mL; in [2], 1 µg/mL; in [3], 1 µg/mL; in data set [4] it was 4 µg/mL; in data set [5], 4 µg/mL; in data set [6], 2 µg/mL. The minimal inhibitory concentration (MIC) in [7] was found to be 1 µg/mL; in data set [8] it was 2 µg/mL; in data set [9], 1 µg/mL; in data set [11] it was 2 µg/mL; in data set [12] it was 2 µg/mL. The 50% haemolytic concentration (HC50) at 1 h in data set [10] is 447 µg/mL.

Take `CCCCCCNC(=O)C[N+](C)(C)CCCCOc1ccc(/C=C/C(=O)c2c(OC)cc3c(c2O)C=CC(C)(C)O3)cc1.[Br-]`: the MIC in [1] was found to be 4 µg/mL; in data set [2], 4 µg/mL; in data set [3] it was 2 µg/mL; in data set [4], 2 µg/mL; in [5] it was 2 µg/mL; in data set [6], 4 µg/mL. The minimum inhibitory concentration (MIC) is 2 µg/mL in data set [7]; 8 µg/mL in data set [8]; 1 µg/mL in data set [9]; 2 µg/mL in data set [11]; 2 µg/mL in data set [12]. For the same molecule, the HC50 at 1 h in data set [10] came out at 938 µg/mL.

Turning to `CCCCCNC(=O)C[N+](C)(C)CCCCCOc1ccc(/C=C/C(=O)c2c(OC)cc3c(c2O)C=CC(C)(C)O3)cc1.[Br-]`, the MIC in data set [1] is 2 µg/mL; in [2] it was 4 µg/mL; in data set [3], 2 µg/mL; in [4], 4 µg/mL; in data set [5], 2 µg/mL; in [6], 8 µg/mL. Further, the MIC in [7], in [8], in [9], in data set [11] and in data set [12] was 2 µg/mL in each case. The molecule further gave a concentration for 50% haemolysis (HC50) at 1 h in [10] of 301 µg/mL.

With `CCCCNC(=O)C[N+](C)(C)CCCOc1ccc(/C=C/C(=O)c2c(OC)cc3c(c2O)C=CC(C)(C)O3)cc1.[Br-]`, the MIC stood at 2 µg/mL in data set [1]; 2 µg/mL in data set [2]; 2 µg/mL in [3]; 4 µg/mL in data set [4]; 2 µg/mL in data set [5]; 1 µg/mL in data set [6]. In addition, the MIC in data set [7] was found to be 1 µg/mL; in [8] it was 2 µg/mL; in [9], 2 µg/mL; in data set [11], 2 µg/mL; in data set [12], 2 µg/mL. In data set [10], this molecule came in with a 50% haemolytic concentration (HC50) at 1 h of 58.3 µg/mL.

With `COc1cc2c(c(O)c1C(=O)/C=C/c1ccc(OCCCC[N+](C)(C)CC(=O)N3CCSCC3)cc1)C=CC(C)(C)O2.[Br-]`, the MIC in data set [1] came out at 4 µg/mL; in data set [2], 4 µg/mL; in [3] it was 4 µg/mL; in [4] it was 2 µg/mL; in data set [5], 2 µg/mL; in [6], 2 µg/mL. Also, the MIC is 2 µg/mL in [7]; 4 µg/mL in [8]; 2 µg/mL in [9]; 4 µg/mL in [11]; 4 µg/mL in [12]. This molecule came in with a 50% haemolytic concentration (HC50) at 1 h in data set [10] of 705 µg/mL.
